Test results: PubChem BioAssay AID308 (DTP/NCI, 2004)
Inconclusive results and toxic doses are left out.

Test system: BDF1 mice, L1210 6-MP/6-TG resistant leukemia ip, survival T/C
Assay: NCI In Vivo Anticancer Drug Screen. Data for tumor model L1210 Leukemia resistant to 6-MP and 6-Thioguanine; NSC 755, NSC 752 (intraperitoneal) in B6D2F1 (BDF1) mice
Settings: endpoint: mean survival time, higher = longer survival
Experimental: The antitumor activity of compounds was measured in mice bearing transplantable tumors. Survival or tumor size were measured and the results are expressed as the measurement made in the treated group (T) divided by the measurement made in the vehicle treated control group (C). The tumor model used in this assay is L1210 Leukemia resistant to 6-MP and 6-Thioguanine; NSC 755, NSC 752 (intraperitoneal) in B6D2F1 (BDF1) mice

[1] = dose: 75.0 mg/kg/injection, schedule: Q01DX009 (ip), vehicle: other
[2] = dose: 150.0 mg/kg/injection, schedule: Q01DX009 (ip), vehicle: other
[3] = dose: 25.0 mg/kg/injection, schedule: Q01DX Z (ip), vehicle: saline
[4] = dose: 25.0 mg/kg/injection, schedule: Q01DX Z (ip), vehicle: carboxymethylcellulose (CMC)
[5] = dose: 125.0 mg/kg/injection, schedule: Q01DX015 (ip), vehicle: carboxymethylcellulose (CMC)

Nc1nc(SCc2ccccc2)c2ncn(C3OC(CO)CC3O)c2n1 (centres undefined)
T/C (dose: 18.75 mg/kg/injection, schedule: Q01DX009 (ip), vehicle: other): 100 % of control | T/C (dose: 37.5 mg/kg/injection, schedule: Q01DX009 (ip), vehicle: other): 97 % of control | T/C [1]: 99 % of control | T/C [2]: 91 % of control

CC1CCOS(=O)O1 (centres undefined)
T/C (dose: 12.5 mg/kg/injection, schedule: Q01DX Z (ip), vehicle: saline): 101 % of control | T/C [3]: 106 % of control | T/C (dose: 37.5 mg/kg/injection, schedule: Q01DX Z (ip), vehicle: saline): 97 % of control | T/C (dose: 75.0 mg/kg/injection, schedule: Q01DX Z (ip), vehicle: saline): 99 % of control | T/C (dose: 100.0 mg/kg/injection, schedule: Q01DX Z (ip), vehicle: saline): 91 % of control

C[C@H](N)C(=O)N[C@@H]1[C@H]2C(=C(O)C[C@@H](O)[C@@H]2O)C(=O)O[C@@H]1C
T/C (dose: 330.0 mg/kg/injection, schedule: Q01DX015 (ip), vehicle: carboxymethylcellulose (CMC)): 152 % of control | T/C (dose: 500.0 mg/kg/injection, schedule: Q01DX Z (ip), vehicle: saline): 189 % of control | T/C (dose: 750.0 mg/kg/injection, schedule: Q01DX Z (ip), vehicle: saline): 185 % of control | T/C (dose: 2000.0 mg/kg/injection, schedule: Q01DX Z (ip), vehicle: saline): 100 % of control

CC/C(=C(/CC)c1ccc(O)cc1)c1ccc(O)cc1
T/C (dose: 37.5 mg/kg/injection, schedule: Q01DX Z (sc), vehicle: steriod suspending solution): 90 % of control | T/C (dose: 50.0 mg/kg/injection, schedule: Q01DX Z (sc), vehicle: steriod suspending solution): 95 % of control | T/C (dose: 75.0 mg/kg/injection, schedule: Q01DX Z (sc), vehicle: steriod suspending solution): 94 % of control | T/C (dose: 100.0 mg/kg/injection, schedule: Q01DX Z (sc), vehicle: steriod suspending solution): 94 % of control

Nc1nc(F)nc2c1ncn2C1OC(CO)C(O)C1O (centres undefined)
T/C (dose: 0.06 mg/kg/injection, schedule: Q01DX Z (ip), vehicle: saline): 109 % of control | T/C (dose: 0.12 mg/kg/injection, schedule: Q01DX Z (ip), vehicle: saline): 104 % of control | T/C (dose: 0.25 mg/kg/injection, schedule: Q01DX Z (ip), vehicle: saline): 106 % of control | T/C (dose: 0.5 mg/kg/injection, schedule: Q01DX Z (ip), vehicle: saline): 101 % of control | T/C (dose: 0.75 mg/kg/injection, schedule: Q01DX Z (ip), vehicle: saline): 119 % of control | T/C (dose: 1.5 mg/kg/injection, schedule: Q01DX Z (ip), vehicle: saline): 107 % of control | T/C (dose: 3.0 mg/kg/injection, schedule: Q01DX Z (ip), vehicle: saline): 115 % of control | T/C (dose: 6.0 mg/kg/injection, schedule: Q01DX Z (ip), vehicle: saline): 90 % of control

CCCNc1ncnc2[nH]ncc12
T/C [3]: 111 % of control

N=C(N)c1ccc(Nc2ccc(C(=N)N)cc2)cc1
T/C (dose: 2.0 mg/kg/injection, schedule: Q01DX Z (ip), vehicle: water): 112 % of control | T/C (dose: 4.0 mg/kg/injection, schedule: Q01DX Z (ip), vehicle: water): 102 % of control | T/C (dose: 6.0 mg/kg/injection, schedule: Q01DX Z (ip), vehicle: water): 104 % of control | T/C (dose: 8.0 mg/kg/injection, schedule: Q01DX Z (ip), vehicle: water): 106 % of control | T/C (dose: 9.37 mg/kg/injection, schedule: Q01DX Z (ip), vehicle: water): 104 % of control | T/C (dose: 18.75 mg/kg/injection, schedule: Q01DX Z (ip), vehicle: water): 100 % of control

Cn1c(O)c(N=NC(N)=S)c2ccccc21
T/C [4]: 100 % of control | T/C (dose: 50.0 mg/kg/injection, schedule: Q01DX Z (ip), vehicle: carboxymethylcellulose (CMC)): 105 % of control | T/C (dose: 100.0 mg/kg/injection, schedule: Q01DX Z (ip), vehicle: carboxymethylcellulose (CMC)): 104 % of control | T/C (dose: 200.0 mg/kg/injection, schedule: Q01DX Z (ip), vehicle: carboxymethylcellulose (CMC)): 88 % of control

CN(C)[C@@H]1C(=O)C(C(=O)NCNc2nc3n[nH]nc3c(=O)[nH]2)=C(O)[C@@]2(O)C(=O)C3=C(O)c4c(O)cccc4[C@@](C)(O)[C@H]3C[C@@H]12
T/C (dose: 50.0 mg/kg/injection, schedule: Q01DX009 (ip), vehicle: saline): 100 % of control | T/C (dose: 100.0 mg/kg/injection, schedule: Q01DX009 (ip), vehicle: saline): 104 % of control | T/C (dose: 200.0 mg/kg/injection, schedule: Q01DX009 (ip), vehicle: saline): 100 % of control | T/C (dose: 400.0 mg/kg/injection, schedule: Q01DX009 (ip), vehicle: saline): 100 % of control

c1nc(Sc2ncnc3nc[nH]c23)c2[nH]cnc2n1
T/C (dose: 37.0 mg/kg/injection, schedule: Q01DX009 (ip), vehicle: other): 100 % of control | T/C [1]: 107 % of control | T/C [2]: 95 % of control | T/C (dose: 300.0 mg/kg/injection, schedule: Q01DX009 (ip), vehicle: other): 91 % of control

C(=C\c1ccccc1)/CSc1ncnc2nc[nH]c12
T/C (dose: 62.0 mg/kg/injection, schedule: Q01DX015 (ip), vehicle: carboxymethylcellulose (CMC)): 98 % of control | T/C [5]: 96 % of control | T/C (dose: 250.0 mg/kg/injection, schedule: Q01DX015 (ip), vehicle: carboxymethylcellulose (CMC)): 91 % of control | T/C (dose: 500.0 mg/kg/injection, schedule: Q01DX015 (ip), vehicle: carboxymethylcellulose (CMC)): 90 % of control | T/C (dose: 1000.0 mg/kg/injection, schedule: Q01DX015 (ip), vehicle: carboxymethylcellulose (CMC)): 90 % of control

OCC1OC(n2cnc3c(=S)nc[nH]c32)C(O)C1O (centres undefined)
T/C (dose: 37.5 mg/kg/injection, schedule: Q01DX Z (ip), vehicle: carboxymethylcellulose (CMC)): 114 % of control | T/C (dose: 50.0 mg/kg/injection, schedule: Q01DX015 (ip), vehicle: carboxymethylcellulose (CMC)): 93 % of control | T/C (dose: 75.0 mg/kg/injection, schedule: Q01DX015 (ip), vehicle: carboxymethylcellulose (CMC)): 93 % of control | T/C (dose: 75.0 mg/kg/injection, schedule: Q01DX Z (ip), vehicle: carboxymethylcellulose (CMC)): 92 % of control | T/C (dose: 100.0 mg/kg/injection, schedule: Q01DX015 (ip), vehicle: carboxymethylcellulose (CMC)): 94 % of control | T/C (dose: 112.0 mg/kg/injection, schedule: Q01DX010 (ip), vehicle: carboxymethylcellulose (CMC)): 94 % of control | T/C (dose: 120.0 mg/kg/injection, schedule: Q01DX001 (ip), vehicle: carboxymethylcellulose (CMC)): 100 % of control | T/C [5]: 90 % of control | T/C (dose: 150.0 mg/kg/injection, schedule: Q01DX010 (ip), vehicle: carboxymethylcellulose (CMC)): 90 % of control | T/C (dose: 150.0 mg/kg/injection, schedule: Q01DX015 (ip), vehicle: carboxymethylcellulose (CMC)): 95 % of control | T/C (dose: 150.0 mg/kg/injection, schedule: Q01DX Z (ip), vehicle: carboxymethylcellulose (CMC)): 97 % of control | T/C (dose: 180.0 mg/kg/injection, schedule: Q01DX001 (ip), vehicle: alkali diluted with saline): 110 % of control | T/C (dose: 180.0 mg/kg/injection, schedule: Q01DX001 (ip), vehicle: carboxymethylcellulose (CMC)): 100 % of control | T/C (dose: 225.0 mg/kg/injection, schedule: Q01DX010 (ip), vehicle: carboxymethylcellulose (CMC)): 88 % of control | T/C (dose: 270.0 mg/kg/injection, schedule: Q01DX001 (ip), vehicle: alkali diluted with saline): 103 % of control | T/C (dose: 270.0 mg/kg/injection, schedule: Q01DX001 (ip), vehicle: carboxymethylcellulose (CMC)): 100 % of control | T/C (dose: 300.0 mg/kg/injection, schedule: Q01DX010 (ip), vehicle: carboxymethylcellulose (CMC)): 91 % of control | T/C (dose: 300.0 mg/kg/injection, schedule: Q01DX Z (ip), vehicle: carboxymethylcellulose (CMC)): 92 % of control | T/C (dose: 400.0 mg/kg/injection, schedule: Q01DX001 (ip), vehicle: alkali diluted with saline): 99 % of control | T/C (dose: 400.0 mg/kg/injection, schedule: Q01DX001 (ip), vehicle: carboxymethylcellulose (CMC)): 96 % of control | T/C (dose: 600.0 mg/kg/injection, schedule: Q01DX001 (ip), vehicle: alkali diluted with saline): 102 % of control | T/C (dose: 600.0 mg/kg/injection, schedule: Q01DX001 (ip), vehicle: carboxymethylcellulose (CMC)): 101 % of control | T/C (dose: 900.0 mg/kg/injection, schedule: Q01DX001 (ip), vehicle: alkali diluted with saline): 100 % of control

Nc1ncnc2[nH]ncc12
T/C (dose: 7.5 mg/kg/injection, schedule: Q01DX Z (ip), vehicle: carboxymethylcellulose (CMC)): 105 % of control | T/C (dose: 10.0 mg/kg/injection, schedule: Q01DX Z (ip), vehicle: carboxymethylcellulose (CMC)): 92 % of control | T/C (dose: 15.0 mg/kg/injection, schedule: Q01DX Z (ip), vehicle: carboxymethylcellulose (CMC)): 94 % of control | T/C [4]: 97 % of control

Clc1ccccc1CSc1ncnc2nc[nH]c12
T/C (dose: 62.5 mg/kg/injection, schedule: Q01DX Z (ip), vehicle: other): 96 % of control | T/C (dose: 125.0 mg/kg/injection, schedule: Q01DX Z (ip), vehicle: other): 92 % of control | T/C (dose: 250.0 mg/kg/injection, schedule: Q01DX Z (ip), vehicle: other): 86 % of control
